Read-outs that look alike come from different tables or passages of the source.
Assays:
[1] = tested on: Escherichia coli (ATCC 25922); experiment: Antibacterial activity, serial dilutions in liquid broth, E. coli; format: cell-based; settings: E. coli (G-)
Method: (§1) Antibacterial and antifungal properties of the studied substances were determined on a series of standard strains of Gram-positive microorganisms (Staphylococcus aureus (ATCC 25923)), Gram-negative microorganisms (Escherichia coli (ATCC 25922)), and fungi (Candida albicans (ATCC 10231)) using the method of serial dilutions in liquid broth. Stock solutions of the studied compounds as well as the reference compounds (furacillinum and nystatin) were prepared by dissolving 10 mg of the corresponding compound in 1 mL of DMSO. After that, the starting solutions (1 mg/mL) were prepared by tenfold dilution of the stock solution with nutrition medium (2% of peptonate bullion). The next dilutions were prepared by serial double dilution with the nutrition medium.

[2] = tested on: normal kidney epithelial (MDCK) cell line; experiment: Antiproliferative activity (MTS and Resazurin assays), MDCK normal cell line; format: cell-based
Method: (§2) The antiproliferative activity of the studied substances was determined toward a series of cancer cell lines (HL-60 (ATCC CCL-240), BxPC-3 (ATCC CRL-1687), HeLa (ATCC CCL-2), RD (ATCC CCL-136)), and a normal cell line (MDCK (ATCC CCL-34)). These cell lines were cultured in accordance with the previously described method. Determination of the number of viable cells after cultivation in the presence of various concentrations of the studied substances was carried out by the MTS and Resazurin assays according to the previously described method. The 10-mM stock solutions of the studied compounds as well as the reference compound (doxorubicin) were prepared by dissolving 10 μmol of the corresponding compound in 1 mL of DMSO. The 0.1, 1, 10, and 100 μM solutions were prepared by dilution of the stock solutions with the corresponding medium and used for the study of antiproliferative activity.

Daphnia magna = experiment: Acute toxicity assay against Daphnia magna; settings: 24 h exposure; for LC50: Daphnia magna
Method: (§3) The general toxicity of the tested compounds was evaluated using Daphnia magna (Straus, 1820). Daphnia magna was originated from a culture maintained parthenogenetically at the Institute of Zoology (Laboratory of Systematics and Molecular Phylogeny).
(§4) The test design was based on ISO 6341 : 2012. The test-organisms Daphnia magna Straus were fed with Chlorella vulgaris. These unicellular algae were grown using aseptic technology to exclude contamination of the culture by bacteria, algae or protozoa. Chlorella vulgaris were cultivated in Prat's growth medium containing KNO3 (1 μM), MgSO4·7H2O (40 μM), K2HPO4·3H2O (400 μM), FeCl3·6H2O (3.6 μM) in H2O distilled (adjusted the pH to 7.0, autoclaved and stored at 5°C).
(§5) D. magna was maintained in aerated aqueous straw infusion growth media supplemented with CaCl2 ([…]), NaHCO3 (2.59 g/L), KCl (0.23 g/L), and MgSO4, 7H2O (4.93 g/L). (pH∼7.5 ± 0.2; O2 ≥ 6.0 mg/L).
(§6) Juveniles were selected according to their size and kept in fresh medium for 24 h. D. magna was cultured in Costar® 24-well culture clear sterile multiple well plates covered by a lid to prevent the possibility of contamination and evaporation but at the same time to allow gaseous exchange between air and culture medium. Each well contained 10 daphnids in 1000 μL final volume of each dilution of the tested compounds.
(§7) The bioassay was then repeated at the concentrations ranging from 0.1 to 100 μM (0.1, 1, 10, and 100 μM) in order to determine LC50 for each compound, including doxorubicin (the positive control). Aqueous straw infusion growth media was used to dilute the stock solutions to the required concentrations. […] A 0.1% solution of DMSO in aerated medium (pH∼7.5 ± 0.2; O2 ≥ 6.0 mg/L) was used as a negative control. Throughout the experiment, the juvenile daphnids were incubated at 22 ± 2 °C, using a 16 h/8 h light/dark cycle (500–1000 lx). The mobility (viability) of the test organisms was observed after the 24-h exposure. The experiment was performed in triplicate.
(§8) The percentage of viability (V (%)) of Daphnia magna was calculated according to the formula:(1) V%=Nsample/Ncontrol×100.
(§9) N - Number of viability of Daphnia magna.
(§10) The compounds median lethal concentration that kills 50% of the juvenile daphnids (LC50) values were calculated from the dose-response equation determined by the least squares fit method.

[3] = tested on: human epithelial pancreatic adenocarcinoma (BxPC-3) cell line; experiment: Antiproliferative activity (MTS and Resazurin assays), BxPC-3; format: cell-based; settings: for SI (selectivity index): IC50(MDCK)/IC50(BxPC-3)
Method: as §2

[4] = Antiradical activity, ABTS•+ method; settings: read-out: IC50 toward ABTS•+ radical cation
Method: The ABTS^•+ method was applied for the determination of antiradical activity of the studied substances. Standard solutions of ABTS^•+ radical cations and tested substances as well as the conditions of spectrophotometric measurements and calculations of inhibition were made as described. The 10-mM stock solutions of the studied compounds as well as the reference compound (trolox) were prepared by dissolving 10 μmol of the corresponding compound in 1 mL of DMSO. The 1, 10, 100, and 1000 μM solutions were prepared by the dilution of stock solutions with DMSO. After that, 20 μL of each tested compound solutions was transferred in a 96-well microtiter plate, and 180 μL of ABTS^•+ working solution was added to receive solutions with final concentrations of tested compounds 0.1, 1, 10, and 100, respectively.

[5] = tested on: human leukemia HL-60 cell line; experiment: Antiproliferative activity (MTS and Resazurin assays), HL-60; format: cell-based; settings: for IC50: HL-60, Table 3; for SI (selectivity index): IC50(MDCK)/IC50(HL-60); for inhibition at 0.1 µM / inhibition at 1 µM / inhibition at 10 µM: read-out: Inhibition of cell proliferation, (%)
Method: as §2

[6] = tested on: human muscle rhabdomyosarcoma (RD) cell line; experiment: Antiproliferative activity (MTS and Resazurin assays), RD; format: cell-based; settings: for SI (selectivity index): IC50(MDCK)/IC50(RD); for IC50: RD
Method: as §2

[7] = tested on: Staphylococcus aureus (ATCC 25923); experiment: Antibacterial activity, serial dilutions in liquid broth, S. aureus; format: cell-based; settings: S. aureus (G+)
Method: as §1

[8] = tested on: human cervical epithelial (HeLa) cell line; experiment: Antiproliferative activity (MTS and Resazurin assays), HeLa; format: cell-based; settings: for IC50: HeLa; for SI (selectivity index): IC50(MDCK)/IC50(HeLa)
Method: as §2

[9] = tested on: Candida albicans (ATCC 10231); experiment: Antifungal activity, serial dilutions in liquid broth, C. albicans; format: cell-based
Method: as §1

[10] = Acute toxicity assay against Daphnia magna; settings: Daphnia magna, in vivo, pH 7.5
Method: as §3, §4, §5, §6, §7, §8, §9, §10

[11] = other: exposure in the test medium (immersion)

Row | Compound | MIC [1] | IC50 [2] | V, (%) percentage of viability of Daphnia magna (Daphnia magna; 0.1 μM) | V, (%) percentage of viability of Daphnia magna (Daphnia magna; 1 μM) | V, (%) percentage of viability of Daphnia magna (Daphnia magna; 10 μM) | V, (%) percentage of viability of Daphnia magna (Daphnia magna; 100 μM) | LC50 (Daphnia magna) | IC50 ([3]; BxPC-3) | SI (selectivity index) [3] | IC50 [4] | Inhibition of cell proliferation, (%) ([5]; HL-60, 0.1 μM) | Inhibition of cell proliferation, (%) ([5]; HL-60, 1 μM) | Inhibition of cell proliferation, (%) ([5]; HL-60, 10 μM) | IC50 [5] | SI (selectivity index) [5] | SI (selectivity index) [6] | IC50 [6] | MBC [7] | MIC [7] | IC50 [8] | also measured
1 | C=CCNC(=NN=Cc1ccccn1)[S][Cu][Cl] [compound 2, [Cu(L)Cl]] | 3.91 µg/mL | 3000 ± 400 nM | 102.6 ± 0.0% | 97.4 ± 7.3% | 0.0% | 0.0% | 3500 ± 2800 nM | 50 ± 20 nM | 60 | > 100000 nM | 40.2 ± 2.8% | 99.2 ± 0.2% | 99.4 ± 0.6% | 100 ± 60 nM | 30 | 23 | 130 ± 20 nM | 0.244 µg/mL | 0.122 µg/mL | 400 ± 30 nM | MBC [1]: 7.81 µg/mL; SI (selectivity index) [8]: 7.5; MFC [9]: 31.3 µg/mL; MIC [9]: 15.6 µg/mL
2 | C=CCNC(=S)N/N=C/c1cccnc1 [HL^a] |  |  |  |  |  |  |  |  |  |  |  |  |  |  |  |  |  |  |  |  | inhibition at 0.1 µM ([5]; Homo sapiens, HL-60, 0.1 μM): 0.9 ± 0.2%; inhibition at 1 µM ([5]; Homo sapiens, HL-60, 1 μM): 1.5 ± 0.5%; inhibition at 10 µM ([5]; Homo sapiens, HL-60, 10 μM): 6.1 ± 0.3%
3 | C=CCNC([S-])=NN=Cc1ccccn1.C=CCNC([S-])=NN=Cc1ccccn1.[Cl-].[Co+3] [compound 6, [Co(L)2]Cl] | 250 µg/mL | > 100000 nM | 97.4 ± 7.3% | 97.4 ± 7.3% | 92.3 ± 0.0% | 35.9 ± 7.3% | 65400 ± 11800 nM | 4100 ± 500 nM | >24 | > 100000 nM | 4.1 ± 0.3% | 6.9 ± 1.7% | 24.1 ± 0.6% | > 10000 nM |  |  | > 100000 nM | 125 µg/mL | 62.5 µg/mL | 2500 ± 500 nM | MBC [1]: 500 µg/mL; Effect on growth and proliferation of normal MDCK cell line (in words) [2]: practically do not affect the growth and proliferation; SI (selectivity index) [8]: >40; MFC [9]: 250 µg/mL; MIC [9]: 62.5 µg/mL
4 | C=CCNC(=NN=Cc1ccccn1)[S][Cu][O]C(C)=O.C=CCNC(=NN=Cc1ccccn1)[S][Cu][O]C(C)=O.O.O.O.O [compound 4, [Cu2(L)2(CH3COO)2]·4H2O] | 1.95 µg/mL | 2000 ± 200 nM | 76.9 ± 7.3% | 66.7 ± 7.3% | 0.0% | 0.0% | 1300 ± 500 nM | 20 ± 10 nM | 100 | 40300 ± 1800 nM | 32.0 ± 2.3% | 99.8 ± 0.2% | 100.0 ± 0.2% | 100 ± 20 nM | 20 | 40 | 50 ± 10 nM | 0.488 µg/mL | 0.244 µg/mL | 200 ± 20 nM | MBC [1]: 3.91 µg/mL; SI (selectivity index) [8]: 10; MFC [9]: 62.5 µg/mL; MIC [9]: 31.3 µg/mL
5 | C=CCNC(=S)NN=Cc1ccccn1.C=CCNC(=S)NN=Cc1ccccn1.O.[Cl-].[Cl-].[Ni+2] [compound 5, [Ni(HL)2]Cl2·H2O] | 1000 µg/mL | > 100000 nM | 102.6 ± 0.0% | 102.6 ± 0.0% | 97.4 ± 7.3% | 87.2 ± 7.3% | > 100000 nM | 3600 ± 900 nM | >27 | 8600 ± 100 nM | 54.5 ± 1.1% | 94.9 ± 0.7% | 108.5 ± 0.5% | 90 ± 10 nM | >1000 | >34 | 2900 ± 400 nM | 31.3 µg/mL | 15.6 µg/mL | > 100000 nM | Effect on growth and proliferation of normal MDCK cell line (in words) [2]: practically do not affect the growth and proliferation; MIC [9]: 500 µg/mL
6 | C=CCNC(=NN=Cc1ccccn1)[S][Cu][Br] [compound 3, [Cu(L)Br]] | 7.81 µg/mL | 6200 ± 1400 nM | 102.6 ± 0.0% | 97.4 ± 7.3% | 0.0% | 0.0% | 3500 ± 2800 nM | 60 ± 10 nM | 103 | 43000 ± 2100 nM | 24.5 ± 1.9% | 100.0 ± 0.3% | 100.0 ± 0.1% | 100 ± 40 nM | 62 | 31 | 200 ± 100 nM | 0.488 µg/mL | 0.244 µg/mL | 300 ± 30 nM | MBC [1]: 15.6 µg/mL; SI (selectivity index) [8]: 21; MFC [9]: 15.6 µg/mL; MIC [9]: 7.81 µg/mL
7 | COc1cccc2c1C(=O)c1c(O)c3c(c(O)c1C2=O)C[C@@](O)(C(=O)CO)C[C@@H]3O[C@H]1C[C@H](N)[C@H](O)[C@H](C)O1 [Doxorubicin, doxorubicin, reference compound] |  |  |  |  |  |  |  |  | 1.9 |  |  |  |  |  | 35.5 | 0.44 |  |  |  |  | IC50 ([2]; Canis lupus familiaris): 7100 ± 300 nM; viability at 24 h, 0.1 µM [10, 11]: 87.2 ± 7.3%; viability at 24 h, 1 µM [10, 11]: 76.9 ± 7.3%; viability at 24 h, 10 µM [10, 11]: 25.6 ± 7.3%; viability at 24 h, 100 µM [10, 11]: 0%; LC50 at 24 h [10]: 3300 ± 1100 nM; IC50 ([3]; Homo sapiens, BXPC-3): 3700 ± 300 nM; inhibition at 0.1 µM ([5]; Homo sapiens, HL-60, 0.1 μM): 16.5 ± 1.8%; inhibition at 1 µM ([5]; Homo sapiens, HL-60, 1 μM): 92.9 ± 0.7%; inhibition at 10 µM ([5]; Homo sapiens, HL-60, 10 μM): 95 ± 0.6%; IC50 ([5]; Homo sapiens): 200 ± 100 nM; IC50 ([6]; Homo sapiens): 16200 ± 600 nM; IC50 ([8]; Homo sapiens): 10000 ± 400 nM; SI (selectivity index) [8]: 0.71
